Columns and labels:
Type in all cases: in vivo
[1] = tested on: collagen-induced arthritis in DBA/1 mice; assay: Collagen-induced arthritis (CIA) model in mice; settings: for average body weight: after day 33
Description: Clinical symptoms of arthritis were induced in mice by injecting collagen emulsion into the tail of mice. The specific steps were as follows:
DBA/1 mice were randomly divided into 6 groups, with 10 mice in each group except the blank control group (5 mice). […] The day of the first immunization was recorded as day 0, and the subsequent days were marked in sequence. DBA/1 mice were anesthetized with isoflurane and injected subcutaneously with 50 μl of the prepared collagen emulsion (containing 200 μg of CII) at the tail (2 cm to 3 cm from the base of the tail). On day 21, the same volume of collagen emulsion was injected into the tail in the same way.
On day 28, when the average clinical score reached 1 to 2, the mice were randomly redivided into 4 treatment groups (10 mice per group) and a blank vehicle control group (10 mice per group) according to body weight and score. […] The administration was performed once daily for 14 days by gavage at 10 mL/kg. After the administration, the clinical score curve of each animal in each group was analyzed to calculate the area under the curve (AUC). The inhibition rate of each administration group relative to the blank vehicle control was calculated based on the average AUC between groups.
Clinical observation: From 7 days before immunization to 21 days after immunization, the basic health status and weight changes of DBA/1 mice were observed daily (recorded twice a week). After day 22, the health status, disease incidence, and weight changes of the mice were observed daily (recorded every two days) until the end of the experiment.
When mice began to develop symptoms of arthritis (clinical symptoms of arthritis appeared), they were scored on a scale from 0 to 4 based on the severity of the lesions (redness, swelling, joint deformation), with a maximum score of 4 for each limb and a maximum score of 16 for each animal. The scoring was performed at least three times a week.
Pathology: On day 42, mice were euthanized. The two hind limbs of the mice were taken, soaked in 10% formalin solution, decalcified with formic acid solution, embedded in paraffin, sectioned, stained with hematoxylin-eosin (HE), and observed under a microscope. The degree of joint damage was evaluated from four aspects: inflammatory cell infiltration, pannus formation, cartilage damage, and bone resorption, and scored on a scale from 0 to 4.

[2] = Phase I single-dose clinical trial, pharmacokinetics; settings: human, plasma, oral, single administration, 10 mg to 800 mg
Description: In this example, 96 healthy Chinese aged 18 to 45 were recruited as subjects. The trial included 8 dose groups, each with 12 subjects, who were randomly divided into groups, 10 of whom received compound (I) capsules (i.e., the trial group) and 2 received placebo capsules (containing no compound (I), i.e., the control group or placebo group). […] The dosages involved in this example were all the amount of compound (I). Based on safety and exploration factors, the human MRSD (maximum recommended starting dose) of compound (I) capsule used in the example was set at 10 mg, and the human maximum recommended dose was set at 800 mg. A total of 8 dose groups were set up between the initial dose and the maximum dose (see Table 2 for the dose escalation scheme of the clinical trial): 10 mg, 25 mg, 50 mg, 100 mg, 200 mg, 400 mg, 600 mg, and 800 mg, and single administration safety and tolerability trials were conducted group by group.
The subjects fasted for 10 h before administration and took a single oral administration of compound (I) capsule or placebo capsule at the prescribed dose on the morning of the trial day. Water was prohibited within 2 h after the administration and food was prohibited within 4 h after the administration. Blood sample collection: 3.0 ml of venous blood was collected before administration (within 45 min) and at 10 min, 20 min, 0.5 h, 1 h, 1.5 h, 1.75 h, 2 h, 2.5 h, 3 h, 3.5 h, 4 h, 6 h, 8 h, 12 h, 16 h, 24 h, 36 h, 48 h, and 72 h after administration. Urine sample collection: Urine samples were collected before administration (within 2 h) and at 0-2 h, 2-4 h, 4-8 h, 8-12 h, 12-16 h, 16-24 h, 24-48 h, and 48-72 h after administration. Feces collection: Feces were collected before administration (within 3 days) and at 0-24 h, 24-48 h, and 48-72 h after administration.
The analysis was performed using the Per-protocol set. The time-dependent plasma concentration data of compound (I) capsules were processed using WinNonlin version 6.4. The main pharmacokinetic parameters of each subject were calculated using a non-compartmental model, and the linear relationship between dose and Cmax and AUC0-t was analyzed using a power function model.

BTK = BTK (Homo sapiens, UniProt Q06187); assay: BTK target occupancy in peripheral blood mononuclear cells (ELISA), Phase I single-dose trial; design: endogenous in cells; host or cells: human peripheral blood mononuclear cells (PBMCs) of trial subjects, lysate
BTK, sequence (Q06187 whole entry): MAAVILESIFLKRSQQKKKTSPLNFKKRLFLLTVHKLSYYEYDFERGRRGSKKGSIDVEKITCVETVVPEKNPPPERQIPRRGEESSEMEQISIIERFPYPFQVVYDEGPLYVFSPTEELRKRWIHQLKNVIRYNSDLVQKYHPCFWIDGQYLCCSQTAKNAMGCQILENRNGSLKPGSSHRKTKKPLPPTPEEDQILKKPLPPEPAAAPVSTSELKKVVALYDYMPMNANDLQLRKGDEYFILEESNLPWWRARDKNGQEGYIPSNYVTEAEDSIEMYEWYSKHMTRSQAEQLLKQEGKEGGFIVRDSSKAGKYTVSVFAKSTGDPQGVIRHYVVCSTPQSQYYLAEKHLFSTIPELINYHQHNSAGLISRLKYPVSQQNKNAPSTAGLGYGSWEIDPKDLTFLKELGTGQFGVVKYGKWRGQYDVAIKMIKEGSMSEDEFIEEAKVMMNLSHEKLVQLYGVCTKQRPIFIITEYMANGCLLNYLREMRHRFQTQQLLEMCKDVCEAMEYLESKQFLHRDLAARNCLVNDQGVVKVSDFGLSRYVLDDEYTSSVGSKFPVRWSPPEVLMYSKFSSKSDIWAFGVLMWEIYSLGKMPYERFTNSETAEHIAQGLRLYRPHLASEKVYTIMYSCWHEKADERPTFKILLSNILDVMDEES
Description: The receptor occupancy of compound (I) in human peripheral blood mononuclear cell lysate was detected by ELISA. The analysis method was to perform relative quantitative determination of BTK in human peripheral blood mononuclear cells (PBMCs) using ELISA.
PBMC lysate containing BTK was incubated with compound (I), with a control containing no compound (I), then incubated with biotinlated compound (I), and then added to a well plate pre-coated with streptavidin. When compound (I) was incubated with PBMC lysate, it was bound to BTK, thereby preventing BTK from binding to biotinylated compound (I). Since the complex cannot bind to the well plate, it was difficult to generate a response signal.
Rabbit anti-BTK primary antibody incubated with the above samples would bind to BTK. Tetramethylbenzidine (TMB) was the substrate of HRP coupled to the anti-rabbit secondary antibody. […] After color development, the absorbance was measured at a wavelength of 450 nm. […] The content of free BTK was proportional to the absorbance. In this way, the content of BTK can be indirectly detected. […]
The analysis was performed using the Per-protocol set. The differences in BTK target occupancy rate among the different dose groups was analyzed using the Chi-Square test; and the relationship between dose, plasma concentration, and BTK target occupancy rate was analyzed using Logistic Regression.

Cmax ([2]; read-out: Cmax, range over dose groups): 46.1 to 5060 ng/mL
MRT ([2]; read-out: MRT, range over dose groups): 1.53 to 4.25 h
half-life ([2]; read-out: T1/2, range over dose groups): 0.847 to 8.67 h
Tmax ([2]; read-out: Tmax, range over dose groups): 1.03 to 2 h
maximum BTK target occupancy rate (BTK; single administration of 10 mg): 58.93%
maximum BTK target occupancy rate (BTK; single administration of 25 mg or above): ~100%
Compound: C=CC(=O)N1CCC[C@@H](n2nc(-c3ccc(Oc4ccccn4)cc3)c3c(N)n[nH]c(=O)c32)C1 [compound (I), (R)-1-(1-acryloylpiperidin-3-yl)-4-amino-3-(4-(pyridin-2-yloxy)phenyl)-1H-pyrazolo[3,4-d]pyridazin-7(6H)-one]
inflammation inhibition rate (AUC of clinical score vs blank vehicle control) ([1]; 1 mg/kg once daily by gavage for 14 days): 65.5%
average body weight ([1]; 1 mg/kg): remained basically unchanged
inflammation inhibition rate (AUC of clinical score vs blank vehicle control) ([1]; 3 mg/kg once daily by gavage for 14 days): 82.4%
average body weight ([1]; 3 mg/kg): increased
inflammation inhibition rate (AUC of clinical score vs blank vehicle control) ([1]; 10 mg/kg once daily by gavage for 14 days): 83.9%
average body weight ([1]; 10 mg/kg): increased
pathology of foot joint bone tissue ([1]; three dose groups (1, 3, and 10 mg/kg), day 42): only mild inflammation
